The subject of experiment [1] is liver tissue. Nature of the experiment: Immunohistochemical staining of negative control tissue (protocol 2). Further details: species or system human. As for the experimental part: Immunohistochemistry was performed on deparafinized slides (xylen and a series of ethanol solutions) at room temperature (20–25 °C). The phosphate-buffered saline (PBS) was used, with a pH of 7.2 and containing disodium hydrogen phosphate, sodium chloride, potassium chloride and potassium dihydrogen phosphate was used. PBS stock solution: 4 g KH2PO4, 23 g Na2HPO4, 4 g KCl, 160 g NaCl and 810 mL distilled water. Before staining, 100 mL of stock solution was diluted with 1900 mL of distilled water.
Each of the two immunohistochemistry protocols for PSA staining consisted of six steps. Steps 1, 4, 5 and 6 of protocol 1 and protocol 2 were identical, while steps 2 and 3 differed (Figure 5 and Figure 6). […] They were analyzed using an Olympus BX41 microscope, with an Olympus DP71 camera set to three levels of magnification: less than 40×, 100×, and 500×.
The staining protocol 2 was a modified IHC protocol 1, as follows: In step 2 we used antisense peptide Biotin-AVRDKVG, instead of the primary monoclonal mouse anti-human PSA antibody, in step 3 we used rabbit polyclonal antibody to biotin conjugated to HRP, instead of HRP labeled polymer conjugated to goat anti-mouse immunoglobulins (Figure 5), with peptide Biotin-EHFRW as a negative control (Figure 7). […] The scale is presented in Table A2, and the final results given in Table 4 are expressed as a sum of scores. […]

In experiment [2] the target is T1, hPSA peptide RHSLFHP coated onto carboxyl magnetic particles (Homo sapiens, UniProt P07288).
T1 construct: Human prostate specific antigen (hPSA) peptide 53–59: RHSLFHP; purchased GenScript; host or cells: synthetic peptide
Nature of the experiment: Magnetic particle enzyme immunoassay (MPEIA). It is filed as binding. The note with it: peptide 1.09–70 µM, 30 min, room temperature; streptavidin-peroxidase/OPD, 450 nm; r^2 = 0.996; mean ± SEM (SEM 0.20 µM); read-out: dissociation constant (Kd). As for the experimental part:
Briefly, the reaction mixture was composed of 2 mL sodium acetate buffer (0.01M, pH 5.0), 2 mg of peptide and 2 mL of 2.5% w/v carboxyl magnetic particles―1.14 μm, 20 mg of EDC. Reactions proceeded in glass reaction tubes overnight at room temperature in a rotary mixer. Tubes were centrifuged at 3000× g for 15 min, supernatant was carefully discarded, and the pellets were washed twice in 4 mL isotonic buffered saline (IBS), followed by centrifugation. After washing, coated magnetic particles were resuspended in 4 mL of PBS containing 0.05% Tween 20.
Two folds serial dilutions (1.09–70 µM) of biotinylated antisense peptide AVRDKVG were made in 96-well microtiter plates to generate standard curves (Figure 4b). Mismatched peptide Biotin-EHFRW was used as a negative control (Figure 4b). A suspension (1.25% w/v) of carboxyl magnetic particles, coated with sense peptide RHSLFHP, was added to each well (40 µL/well). The plates were incubated at room temperature for 30 min and washed with PBS-Tween 20 five times. The washing solution was removed each time using the Spherotech UltraMag Separator (Sperotech, Inc., Lake Forest, IL, USA).
A blocking solution (PBS with 1% BSA) was added to the wells and incubated at room temperature for one hour. […] The absorbances were read at 450 nm on a multiwell plate reader. The data were analyzed using GraphPad Prism software version 5.

The target in experiment [3] is T2, hPSA peptide RHSLFHP (residues 53–59) (Homo sapiens, UniProt P07288).
T2 construct: Human prostate specific antigen (hPSA) peptide 53–59: RHSLFHP; purchased GenScript; host or cells: synthetic peptide
Nature of the experiment: Microscale thermophoresis (MST). It counts as binding. As for the experimental part:
The binding between the biotinylated antisense peptide AVRDKVG and a titrant, i.e., hPSA peptide RHSLFHP (Figure 3b), was observed by the method of microscale thermophoresis (MST). MST-analysis was performed using the Monolith.NT.115 instrument (NanoTemper Technologies GmbH, Munich, Germany). Biotin-AVRDKVG antisense directed to the hPSA region 53–59 was labeled with DY-495 (Red). The labeling procedure and the subsequent removal of unattached dye were performed within 45 min. A serial dilution of the non-labeled hPSA titrant was prepared in a 10 mM phosphate buffer. The concentration of biotin-hPSA antisense labelled with DY-495 was kept constant, while the concentration of the non-fluorescent binding partner (hPSA peptide RHSLFHP53–59) was varied between 0.0854 µM and 2.8 mM. After a short incubation, the samples were loaded into MST NT.115 standard glass capillaries and the MST-analysis was performed. The data were analyzed using GraphPad Prism software version 5.
Background: MST reads how a fluorescent partner responds to local heating, with and without ligand.

Where a SMILES comes first, the peptide text is derived from it. The star is where a group is joined. Biotin = O=C1N[C@H]2[C@H](CS[C@H]2CCCCC(=O)*)N1

For the compound `CC(C)[C@H](NC(=O)[C@H](C)NC(=O)CCCC[C@@H]1SC[C@@H]2NC(=O)N[C@@H]21)C(=O)N[C@@H](CCCNC(=N)N)C(=O)N[C@@H](CC(=O)O)C(=O)N[C@@H](CCCCN)C(=O)N[C@H](C(=O)NCC(=O)O)C(C)C` [Biotin-AVRDKVG] (Biotin-AVRDKVG-OH), the “staining of negative control tissue” value in experiment [1] was “did not stain”. For the same compound, the Kd in experiment [2] stood at 24.6 µM; in experiment [3] (Biotin-AVRDKVG labelled with DY-495, constant, RHSLFHP 0.0854 µM–2.8 mM, 10 mM phosphate buffer, r^2 = 0.989, mean ± SEM, read-out: dissociation constant (Kd)), 24.3 ± 0.74 µM. Besides, the “effect of N-terminal biotinylation on binding” value in experiment [3] (versus Kd of the non-biotinylated peptide by tryptophan fluorescence) is given as “does not significantly alter the binding to hPSA region 53–59 (RHSLFHP)”.

What is called Kd is the constant that tells how readily two partners part at equilibrium.
